Measured values: patent US10532066B2, “Surfactant lipids, compositions thereof, and uses thereof” (National Jewish Health, priority 2007, dated 2020)

What was measured:
[1] = tested on: differentiated U937 cells; assay: LPS-induced TNF-α secretion by differentiated U937 cells; type: cell-based, human; conditions: LPS 10 ng/ml, 6 h, liposomes; LPS without phospholipid = 100%
Description: (§1) FIG. 1. Anionic phospholipids inhibit inflammatory mediator production induced by LPS. Liposomes composed of sphingomyelin (SM), phosphatidylethanolamine (PE) dipalmitoyl-phosphatidylcholine ((DPPC), phosphatidylserine (PS), palmitoyl-oleoyl-phosphatidylglycerol (POPG) and phosphatidylinositol (PI) were formed by bath-sonication for 30 min at room temperature. LPS (10 ng/ml) and different concentrations of phospholipids were added to monolayer cultures of differentiated U937 cells (A), or primary rat alveolar macrophages (B). At 6 h after stimulation, media were collected and secreted TNF-α levels were determined in U937 cultures. NO production was determined 24 h after stimulating rat alveolar macrophages. LPS stimulation in the absence of phospholipid was set as 100%. […] The average TNF-α production upon LPS stimulation was (8.0±0.54 ng/ml). The average NO production upon LPS stimulation was 12.17±0.27 μM.
(§2) FIG. 2. The inhibitory effect of phosphatidylglycerols on LPS-induced inflammatory mediator production is molecular species specific. PG liposomes were formed by bath-sonication for 30 min at room temperature. LPS (10 ng/ml) and different concentrations of PG were added to monolayer cultures of differentiated U937 cells (A) or rat alveolar macrophages (B). Media TNF-α measurements were performed 6 h after stimulation. Media NO measurements were performed 24 h after stimulation. LPS stimulation without PG was set at 100%. The molecular species of PG shown on the graph are 8:0; dioctanoyl-phosphatidylglycerol, 12:0; dilauroyl-phosphatidylglycerol (DLPG), 14:0; dimyristoyl-phosphatidylglycerol (DMPG), 16:0; dipalmitoyl-phosphatidylglycerol (DPPG), 18:0; distearoyl-phosphatidylglycerol, 16:0/18:1; palmitoyl-oleoyl-phosphatidylglycerol (POPG). […] The average TNF-α production upon LPS stimulation was 11.3±0.7 ng/ml. The average NO production upon LPS stimulation was 10.1±0.6 μM.
FIG. 3. […] Surfactant lipid (SL) and POPG were dried under nitrogen, and hydrated at 37° C. for 1 h. (A) SL and POPG were mixed in organic solvents prior to drying and hydrating and subsequently liposomes were produced. (B) SL and POPG were made as independent populations of liposomes that were subsequently mixed prior to macrophage treatment. 10 ng/ml of LPS and different concentrations of liposome mixtures were added to monolayer cultures of differentiated U937 cells. 6 h after stimulation, media were collected and TNF-α production was determined. LPS stimulation without phospholipid was set as 100%. […] The average TNF-α production upon LPS stimulation was 7.0±0.2 ng/ml.
U937 cells were induced to differentiate by treatment with 10 nM phorbol myristate acetate (PMA) for 48 h. The cells (1.3×10^5/well) were placed in 96-well plates and further incubated in the absence of PMA for 24 h in RPMI 1640 medium containing 10% BGS. Rat alveolar macrophages (5×10^5/well) were incubated in 24-well plates for 2 h after isolation. The indicated concentration of phospholipids was added to the cultures 30 min before adding LPS. After LPS addition cultures were incubated for 6 h at 37° C. at an atmosphere of 95% air and 5% CO2. At the end of the incubation period the medium was collected and assayed for TNF-α concentrations using an ELISA kit.
Surfactant lipids were isolated from the bronchioalveolar lavage of Sprague-Dawley rats, 28 days after intratracheal instillation of 25 mg of silica (˜125 mg/kg). Initially, the surfactant was purified by the method of Hawgood et. al. (25) using NaBr density gradient centrifugation. The purified surfactant was extracted with butanol (26) and segregated into butanol-soluble and -insoluble material.

[2] = tested on: primary rat alveolar macrophages; assay: LPS-induced NO production by rat alveolar macrophages; type: cell-based; conditions: LPS 10 ng/ml, 24 h, liposomes; LPS without phospholipid = 100%
Description: as §1, §2
Rat alveolar macrophages were isolated from bronchoalveolar lavage fluid (BALF) of Sprague-Dawley rats. The lungs were lavaged with pyrogen-free saline, and alveolar macrophages were sedimented by centrifugation at 150×g×5 min. Isolated macrophages were plated at 5×10^5 cells/well in 24-well plates (Falcon) in RPMI 1640 medium containing 10% BGS. The cells were allowed to adhere for 2 h and then used for the experiments after washing with phosphate-buffered-saline (PBS) to remove the unattached cells.
Nitric oxide (NO) accumulation in the supernatant was determined as previously reported (28). Briefly, rat alveolar macrophages were stimulated with LPS (10 ng/ml) or LPS plus phospholipids for 24 h. Culture supernatants (usually […]) were combined with an equal volume of Greiss reagent, and the samples were incubated at room temperature for 10 min before the absorbance was quantified at 550 nm. With the use of a standard curve, the nmol of NO produced were determined and normalized to total cell number in each sample.

U937 macrophages = assay: TNFα in U937 macrophages stimulated with smooth LPS, with SP-A and PtdGro; type: cell-based; conditions: 100 ng/ml smooth LPS, 6 hours, lipid 20 μg/ml
Description: U937 macrophages were stimulated with 100 ng/ml smooth LPS for 6 hours. The culture medium was harvested and assayed for the presence of TNFα by ELISA. Control cultures received no additions. SP-A was added as indicated at 10 μg/ml. Saturated-(16:0/16:0)-PtdGro was added at 20 μg/ml. Unsaturated-(18:1/18:1)-PtdGro was added at 20 μg/ml.

| Molecule | LPS-induced TNF-α production [1] | LPS-induced NO production [2] | anti-inflammatory effects on LPS stimulated macrophages (TNFα) (U937 macrophages) |
| --- | --- | --- | --- |
| phosphatidylserine [PS] | less effective than PI and POPG | less effective than PI and POPG |  |
| CCCCCCCC/C=C\CCCCCCCC(=O)OC[C@H](COP(=O)(O)OCC(O)CO)OC(=O)CCCCCCC/C=C\CCCCCCCC (stereo partly drawn) [unsaturated-PtdGro, dioleoyl-phosphatidylglycerol] |  |  | potent anti-inflammatory effects |
| CCCCCCCC(=O)OCC(COP(=O)(O)OCC(O)CO)OC(=O)CCCCCCC (stereo not drawn) [8:0, dioctanoyl-phosphatidylglycerol] | failed to antagonize | failed to antagonize |  |
| phosphatidylethanolamine [PE] | no significant effect | no significant effect |  |
| CCCCCCCCCCCC(=O)OCC(COP(=O)(O)OCC(O)CO)OC(=O)CCCCCCCCCCC (stereo not drawn) [12:0, dilauroyl-phosphatidylglycerol] | modest antagonists |  |  |
| CCCCCCCCCCCCCCCCCC(=O)OCC(COP(=O)(O)OCC(O)CO)OC(=O)CCCCCCCCCCCCCCCCC (stereo not drawn) [18:0, distearoyl-phosphatidylglycerol] | failed to antagonize | failed to antagonize |  |
| sphingomyelin [SM] | no significant effect | no significant effect |  |
